These are literature values, as cited in US20010036486A1, “Method for treating nicotine addiction and deterring tobacco use with hypericum perforatum” (priority 2000, published 2001).

The conditions of the data set: small study; Edward et al. 1989.

With `CN(C)CCC=C1c2ccccc2COc2ccccc21` [doxepin], the “help for smoking cessation” value is “showed some promise for helping smoking cessation”.
